The values below come from patent US8802661B2, “C-28 amides of modified C-3 betulinic acid derivatives as HIV maturation inhibitors” (priority 2010, dated 2014).

Where only a bound is given, the exact number is not on record here.

The first experiment relates to recombinant NL4-3 virus (Renilla luciferase in nef, Gag P373S). The experiment can be described thus: HIV Cell Culture Assay (luciferase reporter virus in MT-2 cells). In kind it is cell-based. Conditions: NL43. As to the method:
MT-2 cells and 293T cells were obtained from the NIH AIDS Research and Reference Reagent Program. MT-2 cells were propagated in RPMI 1640 media supplemented with 10% heat inactivated fetal bovine serum, […]. The 293T cells were propagated in DMEM media supplemented with 10% heat inactivated fetal bovine serum (FBS), 100 units/ml penicillin G and 100 μg/ml streptomycin. The proviral DNA clone of NL4-3 was obtained from the NIH AIDS Research and Reference Reagent Program. A recombinant NL4-3 virus, in which a section of the nef gene from NL4-3 was replaced with the Renilla luciferase gene, was used as a reference virus. In addition, residue Gag P373 was converted to P373S. Briefly, the recombinant virus was prepared by transfection of the altered proviral clone of NL4-3. Transfections were performed in 293T cells using LipofectAMINE PLUS from Invitrogen (Carlsbad, Calif.), according to manufacturer's instruction. The virus was titered in MT-2 cells using luciferase enzyme activity as a marker. Luciferase was quantitated using the Dual Luciferase kit from Promega (Madison, Wis.), with modifications to the manufacturer's protocol. The diluted Passive Lysis solution was pre-mixed with the re-suspended Luciferase Assay Reagent and the re-suspended Stop & Glo Substrate (2:1:1 ratio). Fifty (50) μL of the mixture was added to each aspirated well on assay plates and luciferase activity was measured immediately on a Wallac TriLux (Perkin-Elmer). Antiviral activities of inhibitors toward the recombinant virus were quantified by measuring luciferase activity in cells infected for 4-5 days with NLRluc recombinants in the presence serial dilutions of the inhibitor. Table 1 is the key for the data in Table 2.
`C=C(C)[C@@H]1CC[C@]2(C(=O)NCCNc3ccc(C(=O)O)cc3)CC[C@]3(C)[C@H](CC[C@@H]4[C@@]5(C)CC=C(c6ccc(C(=O)O)cc6)C(C)(C)[C@@H]5CC[C@]43C)[C@@H]12` [Example 114, 4-(2-((1R,3aS,5aR,5bR,7aR,11aS,11bR,13aR,13bR)-9-(4-carboxyphenyl)-5a,5b,8,8,11a-pentamethyl-1-(prop-1-en-2-yl)-2,3,3a,4,5,5a,5b,6,7,7a,8,11,11a,11b,12,13,13a,13b-octadecahydro-1H-cyclopenta[a]chrysene-3a-carboxamido)ethylamino)benzoic acid]: the concentration for a half-maximal effect (EC50) worked out at 17.6 nM.
Same read-out and setting: in the case of `C=C(C)[C@@H]1CC[C@]2(C(=O)NCCCN(CC)CC(=O)O)CC[C@]3(C)[C@H](CC[C@@H]4[C@@]5(C)CC=C(c6ccc(C(=O)O)cc6)C(C)(C)[C@@H]5CC[C@]43C)[C@@H]12` [Example 102, 4-((1R,3aS,5aR,5bR,7aR,11aS,11bR,13aR,13bR)-3a-(3-((carboxymethyl)(ethyl)amino)propylcarbamoyl)-5a,5b,8,8,11a-pentamethyl-1-(prop-1-en-2-yl)-2,3,3a,4,5,5a,5b,6,7,7a,8,11,11a,11b,12,13,13a,13b-octadecahydro-1H-cyclopenta[a]chrysen-9-yl)benzoic acid] it was 10.5 nM.

Still in this experiment, the particulars now being: NL43, read-out: EC50 Group.
Take `C=C(C)[C@@H]1CC[C@]2(C(=O)NCCN(C)C)CC[C@]3(C)[C@H](CC[C@@H]4[C@@]5(C)CC=C(c6ccc(C(=O)O)c(F)c6)C(C)(C)[C@@H]5CC[C@]43C)[C@@H]12` [Example 104, 4-((1R,3aS,5aR,5bR,7aR,11aS,11bR,13aR,13bR)-3a-(2-(dimethylamino)ethylcarbamoyl)-5a,5b,8,8,11a-pentamethyl-1-(prop-1-en-2-yl)-2,3,3a,4,5,5a,5b,6,7,7a,8,11,11a,11b,12,13,13a,13b-octadecahydro-1H-cyclopenta[a]chrysen-9-yl)-2-fluorobenzoic acid]: the EC50 was below 100 nM.
Same read-out and setting: then `C=C(C)[C@@H]1CC[C@]2(C(=O)N[C@H](C(=O)O)c3ccccc3)CC[C@]3(C)[C@H](CC[C@@H]4[C@@]5(C)CC=C(c6ccc(C(=O)O)cc6)C(C)(C)[C@@H]5CC[C@]43C)[C@@H]12` [Example 56, 4-((1R,3aS,5aR,5bR,7aR,11aS,11bR,13aR,13bR)-3a-((S)-carboxy(phenyl)methylcarbamoyl)-5a,5b,8,8,11a-pentamethyl-1-(prop-1-en-2-yl)-2,3,3a,4,5,5a,5b,6,7,7a,8,11,11a,11b,12,13,13a,13b-octadecahydro-1H-cyclopenta[a]chrysen-9-yl)benzoic acid], with below 100 nM.
With `C=C(C)[C@@H]1CC[C@]2(C(=O)NCCN(CC)CC)CC[C@]3(C)[C@H](CC[C@@H]4[C@@]5(C)CC=C(c6ccc(C(=O)O)cc6)C(C)(C)[C@@H]5CC[C@]43C)[C@@H]12` [Example 70, 4-((1R,3aS,5aR,5bR,7aR,11aS,11bR,13aR,13bR)-3a-(2-(diethylamino)ethylcarbamoyl)-5a,5b,8,8,11a-pentamethyl-1-(prop-1-en-2-yl)-2,3,3a,4,5,5a,5b,6,7,7a,8,11,11a,11b,12,13,13a,13b-octadecahydro-1H-cyclopenta[a]chrysen-9-yl)benzoic acid], the EC50 was below 100 nM.
The same measure, in the same setting: in the case of `C=C(C)[C@@H]1CC[C@]2(C(=O)NCCN(CC)CCC(=O)O)CC[C@]3(C)[C@H](CC[C@@H]4[C@@]5(C)CC=C(c6ccc(C(=O)O)cc6)C(C)(C)[C@@H]5CC[C@]43C)[C@@H]12` [Example 89, 4-((1R,3aS,5aR,5bR,7aR,11aS,11bR,13aR,13bR)-3a-(2-((2-carboxyethyl)(ethyl)amino)ethylcarbamoyl)-5a,5b,8,8,11a-pentamethyl-1-(prop-1-en-2-yl)-2,3,3a,4,5,5a,5b,6,7,7a,8,11,11a,11b,12,13,13a,13b-octadecahydro-1H-cyclopenta[a]chrysen-9-yl)benzoic acid] it was below 100 nM.
Same read-out and setting: in the case of `C=C(C)[C@@H]1CC[C@]2(C(=O)NCCNc3ccccc3)CC[C@]3(C)[C@H](CC[C@@H]4[C@@]5(C)CC=C(c6ccc(C(=O)O)cc6)C(C)(C)[C@@H]5CC[C@]43C)[C@@H]12` [Example 110, 4-((1R,3aS,5aR,5bR,7aR,11aS,11bR,13aR,13bR)-5a,5b,8,8,11a-pentamethyl-3a-(2-(phenylamino)ethylcarbamoyl)-1-(prop-1-en-2-yl)-2,3,3a,4,5,5a,5b,6,7,7a,8,11,11a,11b,12,13,13a,13b-octadecahydro-1H-cyclopenta[a]chrysen-9-yl)benzoic acid] it was below 100 nM; in that of `C=C(C)[C@@H]1CC[C@]2(C(=O)NCCCN(C)C)CC[C@]3(C)[C@H](CC[C@@H]4[C@@]5(C)CC=C(c6ccc(C(=O)O)cc6)C(C)(C)[C@@H]5CC[C@]43C)[C@@H]12` [Example 27, 4-((1R,3aS,5aR,5bR,7aR,11aS,11bR,13aR,13bR)-3a-(3-(dimethylamino)propylcarbamoyl)-5a,5b,8,8,11a-pentamethyl-1-(prop-1-en-2-yl)-2,3,3a,4,5,5a,5b,6,7,7a,8,11,11a,11b,12,13,13a,13b-octadecahydro-1H-cyclopenta[a]chrysen-9-yl)benzoic acid], below 100 nM.
The same measure, in the same setting: then `C=C(C)[C@@H]1CC[C@]2(C(=O)NC3(c4ccccn4)CC3)CC[C@]3(C)[C@H](CC[C@@H]4[C@@]5(C)CC=C(c6ccc(C(=O)O)cc6)C(C)(C)[C@@H]5CC[C@]43C)[C@@H]12` [Example 5, 4-((1R,3aS,5aR,5bR,7aR,11aS,11bR,13aR,13bR)-5a,5b,8,8,11a-pentamethyl-1-(prop-1-en-2-yl)-3a-(1-(pyridin-2-yl)cyclopropylcarbamoyl)-2,3,3a,4,5,5a,5b,6,7,7a,8,11,11a,11b,12,13,13a,13b-octadecahydro-1H-cyclopenta[a]chrysen-9-yl)benzoic acid], with below 100 nM; and `C=C(C)[C@@H]1CC[C@]2(C(=O)NCCNCCC(=O)O)CC[C@]3(C)[C@H](CC[C@@H]4[C@@]5(C)CC=C(c6ccc(C(=O)O)cc6)C(C)(C)[C@@H]5CC[C@]43C)[C@@H]12` [Example 91, 4-((1R,3aS,5aR,5bR,7aR,11aS,11bR,13aR,13bR)-3a-(2-(2-carboxyethylamino)ethylcarbamoyl)-5a,5b,8,8,11a-pentamethyl-1-(prop-1-en-2-yl)-2,3,3a,4,5,5a,5b,6,7,7a,8,11,11a,11b,12,13,13a,13b-octadecahydro-1H-cyclopenta[a]chrysen-9-yl)benzoic acid], with below 100 nM.
With `C=C(C)[C@@H]1CC[C@]2(C(=O)NCCc3ccc(OC)cc3)CC[C@]3(C)[C@H](CC[C@@H]4[C@@]5(C)CC=C(c6ccc(C(=O)O)cc6)C(C)(C)[C@@H]5CC[C@]43C)[C@@H]12` [Example 4, 4-((1R,3aS,5aR,5bR,7aR,11aS,11bR,13aR,13bR)-3a-(4-methoxyphenethylcarbamoyl)-5a,5b,8,8,11a-pentamethyl-1-(prop-1-en-2-yl)-2,3,3a,4,5,5a,5b,6,7,7a,8,11,11a,11b,12,13,13a,13b-octadecahydro-1H-cyclopenta[a]chrysen-9-yl)benzoic acid], the EC50 is below 100 nM.
Same read-out and setting: then `C=C(C)[C@@H]1CC[C@]2(C(=O)NCCN(CCC(=O)O)C(C)C)CC[C@]3(C)[C@H](CC[C@@H]4[C@@]5(C)CC=C(c6ccc(C(=O)O)cc6)C(C)(C)[C@@H]5CC[C@]43C)[C@@H]12` [Example 96, 4-((1R,3aS,5aR,5bR,7aR,11aS,11bR,13aR,13bR)-3a-(2-((2-carboxyethyl)(isopropyl)amino)ethylcarbamoyl)-5a,5b,8,8,11a-pentamethyl-1-(prop-1-en-2-yl)-2,3,3a,4,5,5a,5b,6,7,7a,8,11,11a,11b,12,13,13a,13b-octadecahydro-1H-cyclopenta[a]chrysen-9-yl)benzoic acid], with below 100 nM; and `C=C(C)[C@@H]1CC[C@]2(C(=O)NCCN(CCO)CCO)CC[C@]3(C)[C@H](CC[C@@H]4[C@@]5(C)CC=C(c6ccc(C(=O)O)cc6)C(C)(C)[C@@H]5CC[C@]43C)[C@@H]12` [Example 76, 4-((1R,3aS,5aR,5bR,7aR,11aS,11bR,13aR,13bR)-3a-(2-(bis(2-hydroxyethyl)amino)ethylcarbamoyl)-5a,5b,8,8,11a-pentamethyl-1-(prop-1-en-2-yl)-2,3,3a,4,5,5a,5b,6,7,7a,8,11,11a,11b,12,13,13a,13b-octadecahydro-1H-cyclopenta[a]chrysen-9-yl)benzoic acid], with below 100 nM.
Same read-out and setting: in the case of `C=C(C)[C@@H]1CC[C@]2(C(=O)NCCN(C)C)CC[C@]3(C)[C@H](CC[C@@H]4[C@@]5(C)CC=C(c6ccc(C(=O)O)c(C(=O)O)c6)C(C)(C)[C@@H]5CC[C@]43C)[C@@H]12` [Example 113, 4-((1R,3aS,5aR,5bR,7aR,11aS,11bR,13aR,13bR)-3a-(2-(dimethylamino)ethylcarbamoyl)-5a,5b,8,8,11a-pentamethyl-1-(prop-1-en-2-yl)-2,3,3a,4,5,5a,5b,6,7,7a,8,11,11a,11b,12,13,13a,13b-octadecahydro-1H-cyclopenta[a]chrysen-9-yl)phthalic acid] it was above 100 nM.
